Test: Solubility of Pyrasulfotole in solvents with and without organic amine at room temp (24° C.)
Format: physicochemical
Conditions: for increase of solubility: 24° C.
Protocol: Some of the results are tabulated as follows:
Solubility of Pyrasulfotole in Dimethyl sulfoxide (DMSO) and in a mixture of Pyrasulfotole with DMSO and amine at room temp (24° C.) was tested.
Solubility of Pyrasulfotole in Cyclohexanone and in a mixture of Pyrasulfotole with Cyclohexanone and amine at room temp (24° C.) was tested.
Solubility of Pyrasulfotole in Propylene carbonate and in a mixture of Pyrasulfotole with Propylene carbonate and amine at room temp (24° C.) was tested.

Structure (SMILES): Cc1nn(C)c(O)c1C(=O)c1ccc(C(F)(F)F)cc1S(C)(=O)=O [Pyrasulfotole]
- increase of solubility (Cyclohexanone/Genamin C-50 66/34 versus Cyclohexanone alone): about 400%
- increase of solubility (DMSO/GENAMIN C-50 66/34 versus DMSO alone): about 26%
- increase of solubility (Propylene carbonate/Genamin C-50 70/30 versus Propylene carbonate alone): about 620%
- Solubility (%) (solvent Cyclohexanone, rate 100, room temp (24° C.)): 8.24%
- Solubility (%) (solvent Cyclohexanone/Genamin C-50, rate 66/34, room temp (24° C.)): 32.99%
- Solubility (%) (solvent DMSO, rate 100, room temp (24° C.)): 26.98%
- Solubility (%) (solvent DMSO/GENAMIN C-50, rate 66/34, room temp (24° C.)): 39.24%
- Solubility (%) (solvent Propylene carbonate, rate 100, room temp (24° C.)): 4.59%
- Solubility (%) (solvent Propylene carbonate/Genamin C-50, rate 70/30, room temp (24° C.)): 28.57%
